In publication PMC6495379, “Reiterative Synthesis by the Ribosome and Recognition of the N-Terminal Formyl Group by Biosynthetic Machinery Contribute to Evolutionary Conservation of the Length of Antibiotic Microcin C Peptide Precursor” (mBio, 2019):
* marks the point of attachment. For = O=C*

Experiments:
some strains of E. coli = conditions: cited from earlier work
Excerpt: Thus, the minimal set of three genes in an mcc cluster, encoding the precursor peptide, the adenylating enzyme, and the export pump protein, should be sufficient for production of McC-like antibacterial compounds. Bioinformatics searches reveal that genes coding for MccB-like proteins can be found in various bacteria that are phylogenetically distant from E. coli ([10]).

E. coli MccB = assay: In vitro adenylation of MccA peptides by MccB, HPLC read-out; assay type: biochemical, Escherichia coli; conditions: 500 μM peptide, 5 μM MccB, 28°C, 20 min, HPLC 260 nm; for Yield of adenylated peptide (unformylated peptides): ATP
Description: In previous work, it was shown that E. coli MccB is able to modify a wide range of substrates in vivo and in vitro, including MBP protein with attached A7 peptide ([14]). To test MccB activity on elongated substrates encoded by pA11 and pA15, we incubated purified MccB with ATP and chemically synthesized A11 and A15 peptides and measured adenylated peptide yields by high-pressure liquid chromatography (HPLC) (Fig. 6). […] We next repeated the experiment with N-terminally formylated versions of each peptide that correspond to the products of ribosomal synthesis. […] We conclude that under our conditions, the presence of the formyl group on the N-terminal methionine residue selectively amplified the yields of MccA heptapeptide adenylation compared to adenylation yields of longer peptides A11 and A15.
FIG 6 In vitro adenylation of MccA peptides of different lengths by MccB. HPLC traces (260 nm) showing product formation after incubation of equal molar amounts of A7 (MRTGNAN), A11 (MGGGMRTGNAN), and A15 (MASTAGGGMRTGNAN) peptides and their N-terminally formylated variant peptides (marked with the f prefix) with MccB in the reaction buffer for 20 min at 28°C.
For adenylation efficiency measurements, 500 μM peptide was incubated with 5 μM MccB at 28°C for 20 min, and then the reaction was quenched with 0,1% TFA and analyzed using C18 reversed-phase chromatography (Symmetry C18, 5 μm, 4.6 mm by 150 mm; Waters). A 0% to 15% linear gradient of acetonitrile in 0.1% TFA was applied for elution. The identities of the compounds in the chromatographic fractions were confirmed by MALDI-TOF MS.

[1] = formylated versus unformylated peptide

| Substance | Increase of toxicity of McC by the aminopropyl moiety (some strains of E. coli) | Increase in adenylated product yield on N-terminal formylation, compared to the unformylated peptide (E. coli MccB; [1]) | Increase in adenylated product yield on N-terminal formylation, compared to the unformylated peptide (E. coli MccB; formylated versus unformylated peptide, listed as heptapeptide MccA) [fold] | Yield of adenylated peptide (unformylated peptides) (E. coli MccB) | Decrease in adenylated product yield on N-terminal formylation, compared to the unformylated peptide (E. coli MccB; [1]) [fold] |
| --- | --- | --- | --- | --- | --- |
| Microcin C (For-MRTGNAN-{adenylate (N-P bond, aminopropyl on phosphoramidate)}) [McC, heptapeptide adenylate antibiotic, formylated, with aminopropyl on the phosphoramidate] | 4- to 10 fold | – | – | – | – |
| MRTGNAN [A7, 7-amino-acid McC precursor peptide MRTGNAN, chemically synthesized] | – | approximately 8 fold | ~10 | comparable yields | – |
| MGGGMRTGNAN [A11, 11-amino-acid MccA-based peptide […]] | – | ~2 fold | – | comparable yields | – |
| MASTAGGGMRTGNAN [A15, 15-amino-acid MccA-based peptide […]] | – | – | – | comparable yields | ~3 |
